In patent US9140689B2, “Methods of determining susceptibility of tumors to tyrosine kinase inhibitors” (Translational Genomics Research Institute, priority 2010, dated 2015):
pIC50: −log10 of the molar value.

Columns and labels:
Type in all cases: cell-based, murine
[1] = tested on: BaF3/FGFR2b wildtype cells; test: BaF3/FGFR2b cell viability (ViaLight assay), wildtype; settings: Mus musculus, BaF3, 72 h, read-out: IC50 value in BaF3/FGFR2b wildtype
Description: (§1) The BaF3 cell line is an IL-3 dependent murine pro-B cell line that is commonly employed to model TKI resistant mutations. BaF3 cells are made dependent on a specific oncogenic tyrosine kinase, and are cultured in the presence of a kinase inhibitor against that specific kinase, and resistant colonies can be screened for drug resistant mutations. This approach effectively reproduced the pattern and relative abundance of Bcr-Abl mutations seen clinically in imatinib-resistant patients (Von Bubnoff, N. et al, Blood. 2005 105:1652-1659)
(§2) BaF3/FGFR2b wildtype and N550K mutation variant cells were plated at a density of 10,000 cells/well in a 96-well plate. […] (Selleck Chemicals) or PD173074 (Calbiochem) was added in half-log dilutions in the absence of IL3 and in the presence of 1 nM FGF10 and 5 μg/mL heparin. After 72 hours, cell viability was measured using the ViaLight assay from Lonza (Visp, CH). The IC50 values shown in FIG. 1 were normalized to DMSO control and data were analyzed with Prism software. […].

[2] = tested on: BaF3/FGFR2b E719G mutation variant cells; test: BaF3/FGFR2b TKI resistance test, E719G variant alone
From the text: Genomic DNA was isolated from the BaF3.FGFR2b colonies selected in the […]-resistance screen. Exons encoding the intracellular domain of FGFR2b were amplified and sequencing performed in two directions. Mutations in the intracellular domain of FGFR2b were identified in 26 of the 63 (41%) […] resistant BaF3.FGFR2b clones. Among the 26 FGFR2b mutations, eleven different mutation variants were detected (Table 1). The eleven different mutation variants are: M536I, M538I, I548V, N550H, N550K, N550S, V565I, E566G, L618M, E719G, and Y770IfsX14. The most commonly mutated codon was N550, with mutations occurring in 19 of the 26 (73%) resistant clones. In addition, E719G mutation variant was identified in a clone with a N550H mutation; […]. Similar tests were performed with the other 10 FGFR2b mutation variants. The majority of the mutations identified in this drug resistance screen result in activation of FGFR2. […]. The FGFR2 mutations resistance to another TKI PD173074 were also tested. […] The receptor activation of FGFR2 mutants and wildtype were measured and compared in the presence of FGF ligand. […]

[3] = tested on: BaF3/FGFR2b N550K mutation variant cells; test: BaF3/FGFR2b cell viability (ViaLight assay), N550K variant
Description: as §1, §2

## CCN(CC)CCCCNc1ncc2cc(-c3cc(OC)cc(OC)c3)c(NC(=O)NC(C)(C)C)nc2n1 [PD173074]
[1]
  pIC50: 8.35
[2]
  resistance conferred by E719G mutation alone: did not induce resistance
[3]; BaF3/FGFR2b N550K vs wildtype
  fold difference of IC50, N550K versus wildtype: over 170 fold
[3]; Mus musculus, BaF3, 72 h, read-out: IC50 value in N550K resistance cells
  pIC50: 6.11
